Data reported in the NIST ThermoML archive (doi:10.1021/je800188a).

Assay: mean ionic activity coefficient (dimensionless); mn = molality of the nth substance listed, in mol/kg
Settings: 298.15 K, 101 kPa, Liquid

[Cl-].[K+] [potassium chloride] + O
Settings | mean ionic activity coefficient
m1 = 0.2 | 0.719
m1 = 0.4 | 0.669
m1 = 0.6 | 0.641
m1 = 0.8 | 0.623
m1 = 1 | 0.61
m1 = 1.2 | 0.601
m1 = 1.4 | 0.593
m1 = 1.6 | 0.588
m1 = 1.8 | 0.584
m1 = 2 | 0.58
m1 = 2.2 | 0.578
m1 = 2.4 | 0.576
m1 = 2.6 | 0.575
m1 = 2.8 | 0.575
m1 = 3 | 0.575
m1 = 3.2 | 0.576
m1 = 3.4 | 0.576
m1 = 3.6 | 0.578
m1 = 3.8 | 0.58
m1 = 4 | 0.582
m1 = 4.2 | 0.584
m1 = 4.4 | 0.587
m1 = 4.6 | 0.59
m1 = 4.8 | 0.593
m1 = 4.803 | 0.593

[Cl-].[Na+] [sodium chloride] + O
Settings | mean ionic activity coefficient
m1 = 0.2 | 0.734
m1 = 0.4 | 0.694
m1 = 0.6 | 0.676
m1 = 0.8 | 0.666
m1 = 1 | 0.662
m1 = 1.2 | 0.66
m1 = 1.4 | 0.662
m1 = 1.6 | 0.665
m1 = 1.8 | 0.669
m1 = 2 | 0.675
m1 = 2.2 | 0.682
m1 = 2.4 | 0.69
m1 = 2.6 | 0.699
m1 = 2.8 | 0.709
m1 = 3 | 0.72
m1 = 3.2 | 0.732
m1 = 3.4 | 0.744
m1 = 3.6 | 0.758
m1 = 3.8 | 0.772
m1 = 4 | 0.787
m1 = 4.2 | 0.803
m1 = 4.4 | 0.82
m1 = 4.6 | 0.838
m1 = 4.8 | 0.857
m1 = 5 | 0.877
m1 = 5.2 | 0.898
m1 = 5.4 | 0.92
m1 = 5.6 | 0.943
m1 = 5.8 | 0.968
m1 = 6 | 0.993
m1 = 6.144 | 1.01
